Experimental data published in the NIST ThermoML archive (doi:10.1016/j.fluid.2015.03.016).
Where “and” joins values, the source holds several entries; their conditions need not be identical. Identical values can stand only once.

Settings: Liquid

CCCOC(=O)CCCCC(=O)OCCC [dipropyl hexanedioate]
Settings | viscosity
303.14 K, 1110 kPa, Vibrating wire viscometry | 3.606 mPa·s and 3.607 mPa·s
303.14 K, 1140 kPa, Vibrating wire viscometry | 3.609 mPa·s
303.14 K, 5210 kPa, Vibrating wire viscometry | 3.78 mPa·s
303.14 K, 5220 kPa, Vibrating wire viscometry | 3.781 mPa·s and 3.776 mPa·s
303.14 K, 18280 kPa, Vibrating wire viscometry | 4.327 mPa·s
303.14 K, 18290 kPa, Vibrating wire viscometry | 4.33 mPa·s and 4.331 mPa·s
303.15 K, 2810 kPa, Vibrating wire viscometry | 3.653 mPa·s and 3.654 mPa·s
303.15 K, 2820 kPa, Vibrating wire viscometry | 3.657 mPa·s
303.15 K, 10310 kPa, Vibrating wire viscometry | 3.975 mPa·s
303.15 K, 10320 kPa, Vibrating wire viscometry | 3.972 mPa·s
303.15 K, 15230 kPa, Vibrating wire viscometry | 4.218 mPa·s
303.15 K, 15260 kPa, Vibrating wire viscometry | 4.213 mPa·s
303.15 K, 15310 kPa, Vibrating wire viscometry | 4.218 mPa·s
313.15 K, 2710 kPa, Vibrating wire viscometry | 2.934 mPa·s and 2.931 mPa·s
313.15 K, 15330 kPa, Vibrating wire viscometry | 3.354 mPa·s and 3.356 mPa·s and 3.358 mPa·s
313.15 K, 18290 kPa, Vibrating wire viscometry | 3.441 mPa·s and 3.443 mPa·s
313.16 K, 1200 kPa, Vibrating wire viscometry | 2.882 mPa·s
313.16 K, 1210 kPa, Vibrating wire viscometry | 2.879 mPa·s
313.16 K, 1220 kPa, Vibrating wire viscometry | 2.882 mPa·s
313.16 K, 2700 kPa, Vibrating wire viscometry | 2.933 mPa·s
313.16 K, 5180 kPa, Vibrating wire viscometry | 3.01 mPa·s
313.16 K, 5190 kPa, Vibrating wire viscometry | 3.016 mPa·s
313.16 K, 10460 kPa, Vibrating wire viscometry | 3.178 mPa·s
313.16 K, 10480 kPa, Vibrating wire viscometry | 3.176 mPa·s
313.16 K, 10490 kPa, Vibrating wire viscometry | 3.177 mPa·s
313.16 K, 18290 kPa, Vibrating wire viscometry | 3.445 mPa·s
313.18 K, 101.33 kPa, Capillary tube (Ostwald / Ubbelohde) method | 2.888 mPa·s
323.1 K, 101.33 kPa, Capillary tube (Ostwald / Ubbelohde) method | 2.352 mPa·s
323.15 K, 1160 kPa, Vibrating wire viscometry | 2.359 mPa·s
323.15 K, 1170 kPa, Vibrating wire viscometry | 2.356 mPa·s
323.15 K, 1180 kPa, Vibrating wire viscometry | 2.36 mPa·s
323.15 K, 15180 kPa, Vibrating wire viscometry | 2.729 mPa·s
323.16 K, 2710 kPa, Vibrating wire viscometry | 2.409 mPa·s and 2.408 mPa·s
323.16 K, 2720 kPa, Vibrating wire viscometry | 2.412 mPa·s
323.16 K, 5260 kPa, Vibrating wire viscometry | 2.464 mPa·s
323.16 K, 5270 kPa, Vibrating wire viscometry | 2.462 mPa·s
323.16 K, 15200 kPa, Vibrating wire viscometry | 2.731 mPa·s
323.17 K, 10210 kPa, Vibrating wire viscometry | 2.598 mPa·s
323.17 K, 10220 kPa, Vibrating wire viscometry | 2.597 mPa·s
323.17 K, 18240 kPa, Vibrating wire viscometry | 2.814 mPa·s
323.17 K, 18260 kPa, Vibrating wire viscometry | 2.816 mPa·s
323.17 K, 18270 kPa, Vibrating wire viscometry | 2.812 mPa·s
333.14 K, 2610 kPa, Vibrating wire viscometry | 2.006 mPa·s
333.14 K, 2620 kPa, Vibrating wire viscometry | 2.009 mPa·s
333.15 K, 2620 kPa, Vibrating wire viscometry | 2.009 mPa·s
333.15 K, 5110 kPa, Vibrating wire viscometry | 2.05 mPa·s and 2.052 mPa·s
333.15 K, 5130 kPa, Vibrating wire viscometry | 2.052 mPa·s
333.15 K, 15200 kPa, Vibrating wire viscometry | 2.274 mPa·s
333.15 K, 15220 kPa, Vibrating wire viscometry | 2.273 mPa·s
333.15 K, 18260 kPa, Vibrating wire viscometry | 2.339 mPa·s
333.15 K, 18290 kPa, Vibrating wire viscometry | 2.338 mPa·s
333.15 K, 18300 kPa, Vibrating wire viscometry | 2.343 mPa·s
333.16 K, 1090 kPa, Vibrating wire viscometry | 1.975 mPa·s
333.16 K, 1100 kPa, Vibrating wire viscometry | 1.979 mPa·s
333.16 K, 1120 kPa, Vibrating wire viscometry | 1.979 mPa·s
333.16 K, 10160 kPa, Vibrating wire viscometry | 2.167 mPa·s
333.16 K, 10180 kPa, Vibrating wire viscometry | 2.163 mPa·s
333.16 K, 10190 kPa, Vibrating wire viscometry | 2.165 mPa·s
333.16 K, 15220 kPa, Vibrating wire viscometry | 2.273 mPa·s
333.22 K, 101.33 kPa, Capillary tube (Ostwald / Ubbelohde) method | 1.97 mPa·s
